Tests used:
SCD5 = target: T1, SCD5 (Homo sapiens, UniProt Q86SK9); test: Growth inhibition of humanized yeast strain expressing SCD5 as sole desaturase; type: cell-based
T1 construct: host or cells: S. cerevisiae ole1Δ strain (W303 pdr1Δ pdr3Δ background), plasmid pRS316 with TDH3 promoter and CYC1 terminator
T1 sequence (Q86SK9 1-330): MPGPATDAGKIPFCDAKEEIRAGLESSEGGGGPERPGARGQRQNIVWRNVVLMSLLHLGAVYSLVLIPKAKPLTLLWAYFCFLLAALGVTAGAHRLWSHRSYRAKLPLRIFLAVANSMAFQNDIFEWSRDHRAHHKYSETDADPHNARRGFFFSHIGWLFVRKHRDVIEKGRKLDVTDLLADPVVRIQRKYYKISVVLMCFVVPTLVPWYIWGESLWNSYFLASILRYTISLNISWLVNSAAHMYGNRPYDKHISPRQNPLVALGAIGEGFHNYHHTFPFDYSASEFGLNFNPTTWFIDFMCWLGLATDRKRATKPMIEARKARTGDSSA
In short: (§1)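 ole1Δ yeast (W303 pdr1Δ pdr3Δ background) carrying plasmid-borne Ole1, SCD1 or SCD5, grown in uracil-free media; cultures pre-grown in raffinose, seeded at 2× density 0.02 in galactose media with compound. Growth read as OD600 after 24 h at 30° C. for Ole1, 40 h for SCD1/SCD5.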

SCD1 = target: T2, SCD1 (Homo sapiens, UniProt O00767); test: Growth inhibition of humanized yeast strain expressing SCD1 as sole desaturase; type: cell-based
T2 construct: host or cells: S. cerevisiae ole1Δ strain (W303 pdr1Δ pdr3Δ background), plasmid pRS316 with TDH3 promoter and CYC1 terminator
T2 sequence (O00767 1-359): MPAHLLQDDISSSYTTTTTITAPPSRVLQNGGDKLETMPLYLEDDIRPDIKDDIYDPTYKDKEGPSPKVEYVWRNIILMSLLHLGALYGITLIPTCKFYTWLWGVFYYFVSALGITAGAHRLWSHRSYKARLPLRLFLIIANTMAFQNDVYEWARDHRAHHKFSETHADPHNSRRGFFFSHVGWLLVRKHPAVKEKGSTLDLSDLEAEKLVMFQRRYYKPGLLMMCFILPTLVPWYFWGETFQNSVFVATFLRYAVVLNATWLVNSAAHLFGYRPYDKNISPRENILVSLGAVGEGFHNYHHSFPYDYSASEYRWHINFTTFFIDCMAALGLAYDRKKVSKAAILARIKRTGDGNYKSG
In short: as §1

[1] = humanized yeast strain expressing SCD5
[2] = humanized yeast strain expressing SCD1
[3] = growth inhibition of humanized yeast strain expressing human SCD5
[4] = growth inhibition of humanized yeast strain expressing human SCD1

| SMILES | IC50 (SCD5; humanized yeast strain, 40 h) [µM] | IC50 (SCD1; humanized yeast strain, 40 h) [µM] | further results |
| --- | --- | --- | --- |
| Clc1cnc2n1CCN(c1noc(-c3ccc4cn[nH]c4c3)n1)C2 [Compound 904] | 7.62 | > 45 |  |
| CC(C)n1nc(CCS(C)(=O)=O)c2ccc(-c3noc(C4CCN(C(=O)OC(C)(C)C)CC4)n3)cc21 [Compound 767] | 0.01 | > 45 |  |
| Cc1nn(C)c2cc(-c3noc([C@H]4CCN(C(=O)CNC(=O)c5ccccc5)CC4(F)F)n3)ccc12 [Compound 578] |  |  | IC50 (SCD5; [1]): 1.49 µM; IC50 (SCD1; [2]): 8.46 µM |
| COCC(COC)n1ncc2ccc(-c3nc(C4CCN(C(=O)OC)CC4)no3)cc21 [Compound 840] | 20.7 | > 45 |  |
| CC(C)n1ncc2ccc(-c3noc(C4CCN(C(=O)CNC(=O)OC(C)(C)C)CC4(F)F)n3)cc21 (centres unmarked) [Compound 525] |  |  | IC50 (SCD5; [1]): > 45 µM; IC50 (SCD1; [2]): > 45 µM |
| CC(C)(C)OC(=O)N1CCCN(c2noc(-c3ccc4cnn(C5COC5)c4c3)n2)CC1 [Compound 854] | 0.01 | 14.6 |  |
| CC(C)n1ncc2ccc(-c3nc(C4CCNC4)no3)cc21 (centres unmarked) [Compound 531] |  |  | IC50 (SCD5; [1]): > 45 µM; IC50 (SCD1; [2]): > 45 µM |
| CC(C)(C)OC(=O)N1CCC(c2nc(-c3ccc4cn(C5CC(=O)C5)nc4c3)no2)CC1 [Compound 786] | > 45 | > 45 |  |
| O=C(C1CCC1)N1CCC(c2noc(-c3cc(F)c4cnn(C5COC5)c4c3)n2)CC1 [Compound 1061] | 0.01 | > 45 |  |
| CC(C)c1noc2ccc(-c3noc(C4CCN(C(=O)CC5(C)CC5)CC4)n3)cc12 [Compound 670] |  |  | IC50 (SCD5; [3]): 3.79 µM; IC50 (SCD1; [4]): > 45 µM |
| CC(C)(C)OC(=O)N1CCC(c2noc(-c3cc4c(Cl)nccn4c3)n2)CC1 [Compound 882] | 1.91 | 6.56 |  |
| CC(C)(C)COC(=O)N1CC(c2nc(-c3ccc4cnn(C5COC5)c4c3)no2)C1 [Compound 709] |  |  | IC50 (SCD5; [3]): 4.77 µM; IC50 (SCD1; [4]): > 45 µM |
| COC(=O)N1CCC(c2nc(-c3ccc4cnn(C5CN(C(=O)OC(C)(C)C)C5)c4c3)no2)CC1 [Compound 951] | > 45 | > 45 |  |
| CCC(=O)N1CCC(c2noc(-c3ccc(N4CCOCC4)cc3)n2)CC1 [Compound 1166] | > 45 | > 45 |  |
| COCC(C)(C)n1ncc2ccc(-c3noc(N4CCN(C(=O)OC(C)(C)C)CC4)n3)cc21 [Compound 788] | 6.22 | > 45 |  |
| Cc1nn(C)c2cc(-c3noc(C4CCN(C(=O)CCC(F)(F)F)CC4)n3)ccc12 [Compound 677] |  |  | IC50 (SCD5; [3]): > 45 µM; IC50 (SCD1; [4]): > 45 µM |
| CC1(CC(=O)N2CCC(c3nc(-c4ccc5cnn(C6COC6)c5c4)ns3)CC2)CC1 [Compound 801] | 0.363 | > 45 |  |
| CC(C)(C)OC(=O)N1CCC(c2noc(-c3cc4c(cnn4C4COC4)cc3F)n2)CC1 [Compound 931] | > 45 | > 45 |  |
| CCOC(=O)N1CCC(c2nc(-c3ccc4cnn(C(C)C)c4c3)no2)CC1 [Compound 361] |  |  | IC50 (SCD5; [1]): > 45 µM; SCD5 % Max Inhibition (SCD5; [1]): 0.95%; SCD1 % Max Inhibition (SCD1; [2]): 67.22% |
| CC(C)n1ncc2ccc(-c3noc(C4CCN(C(=O)CNC(=O)c5ccc(F)cc5)CC4(F)F)n3)cc21 (centres unmarked) [Compound 520] |  |  | IC50 (SCD5; [1]): > 45 µM; IC50 (SCD1; [2]): > 45 µM |
| CC(C)n1ncc2ccc(N3CC4(CCN(C(=O)CC(C)(C)C)CC4)C3)cc21 [Compound 632] |  |  | IC50 (SCD5; [3]): > 45 µM; IC50 (SCD1; [4]): > 45 µM |
| CC(C)n1nc(CCN)c2ccc(-c3noc(C4CCN(C(=O)OC(C)(C)C)CC4)n3)cc21 [Compound 761] | > 45 | > 45 |  |
| CC(C)(C)OC(=O)N1CCC(c2noc(-c3ccc4cnn(C5CCOC5)c4c3)n2)CC1 (centres unmarked) [Compound 817] | 0.01 | 4.13 |  |
| Cc1nn(C)c2cc(-c3noc(C4CCN(C(=O)CN)CC4(F)F)n3)ccc12 (centres unmarked) [Compound 512] |  |  | IC50 (SCD5; [1]): > 45 µM; IC50 (SCD1; [2]): > 45 µM |

| SMILES | IC50 (SCD5; humanized yeast strain, 40 h) [µM] | IC50 (SCD1; humanized yeast strain, 40 h) [µM] | further results |
| --- | --- | --- | --- |
| CCC(=O)N1CCN(c2noc(-c3ccc4cnn(C5COC5)c4c3)n2)CC1 [Compound 841] | 0.209 | > 45 |  |
| CC(C)n1ncc2ccc(-c3noc(N4CCN(C(=O)CC5CC5)CC4)n3)cc21 [Compound 869] | 1.64 | > 45 |  |
| O=C(C1CC2(CC2)C1)N1CCN(c2nnc(-c3ccc4cnn(C5COC5)c4c3)o2)CC1 [Compound 993] | 3.81 | > 45 |  |
| C=Cc1nn(C(C)C)c2cc(-c3noc(C4CCN(C(=O)OC(C)(C)C)CC4)n3)ccc12 [Compound 653] |  |  | IC50 (SCD5; [3]): > 45 µM; IC50 (SCD1; [4]): > 45 µM |
| O=C(C1CC2(CC2)C1)N1CCC(c2noc(-c3ccc4oc(=O)n(C5COC5)c4c3)n2)CC1 [Compound 1021] | 0.223 | > 45 |  |
| CC1(CC(=O)N2CCC(c3noc(-c4ccc5cnn(C6COC6)c5c4)n3)CC2)CC1 [Compound 886] | 0.06 | 10.6 |  |
| COC(=O)N1CCC(c2noc(-c3ccnc(-c4cnn(C)c4)c3)n2)CC1 [Compound 1265] |  |  | IC50 (SCD5; yeast strain expressing human SCD5 as sole desaturase, Table 8): 11 µM; IC50 (SCD1; yeast strain expressing human SCD1 as sole desaturase, Table 8): 13.5 µM |
| CC(C)(C)OC(=O)N[C@H]1CC[C@@H](c2nc(-c3ccc4cnn(C5COC5)c4c3)no2)CC1 [Compound 683] |  |  | IC50 (SCD5; [3]): 10.1 µM; IC50 (SCD1; [4]): > 45 µM |
| CC(CF)n1ncc2ccc(-c3noc(C4CCN(C(=O)OC5(C)CC5)CC4)n3)cc21 (centres unmarked) [Compound 607] |  |  | IC50 (SCD5; [3]): 0.511 µM; IC50 (SCD1; [4]): > 45 µM |
| Cc1nn(C)c2cc(-c3noc([C@H]4CC[C@H](O)CC4)n3)ccc12 [Compound 526] |  |  | IC50 (SCD5; [1]): > 45 µM; IC50 (SCD1; [2]): > 45 µM |
| CNC(=O)Cn1ncc2ccc(-c3noc(C4CCN(C(=O)OC(C)(C)C)CC4)n3)cc21 [Compound 644] |  |  | IC50 (SCD5; [3]): > 45 µM; IC50 (SCD1; [4]): > 45 µM |
| CC(C)(C)OC(=O)N1CCC(c2nc(-c3ccc4cnn(C5CN(C(=O)OC(C)(C)C)C5)c4c3)no2)CC1 [Compound 652] |  |  | IC50 (SCD5; [3]): > 45 µM; IC50 (SCD1; [4]): > 45 µM |
| CC(C)n1ncc2ccc(-c3noc(C4CCN(C(=O)C5(O)CC5)CC4)n3)cc21 [Compound 779] | 15.3 | > 45 |  |
| CC(C)n1ncc2ccc(N3CC4(CCN(C(=O)OC(C)(C)C)CC4)OC3=O)cc21 [Compound 671] |  |  | IC50 (SCD5; [3]): > 45 µM; IC50 (SCD1; [4]): > 45 µM |
| CC(C)n1ncc2ccc(-c3nc(C4CCN(C(=O)c5ncccn5)CC4)no3)cc21 [Compound 716] |  |  | IC50 (SCD5; [3]): > 45 µM; IC50 (SCD1; [4]): > 45 µM |
| CC(C)(C)OC(=O)N1C[C@@H]2[C@H](C1)[C@H]2NC(=O)c1ccc2cnn(C3COC3)c2c1 [Compound 814] | > 45 | > 45 |  |
| CC(C)(C)OC(=O)N1CCC(c2noc(-c3cc(F)c4cnn(C5COC5)c4c3)n2)CC1 [Compound 860] | 0.478 | > 45 |  |
| CC(C)n1ncc2ccc(-c3noc(N4CCN(C(=O)c5cccc(F)c5)CC4)n3)cc21 [Compound 547] |  |  | IC50 (SCD5; [1]): 44.3 µM; IC50 (SCD1; [2]): > 45 µM |
| CC(C)n1ncc2ccc(-c3noc(C4CCN(C(=O)C56CCC(F)(CC5)CC6)CC4)n3)cc21 [Compound 755] | 5.41 | > 45 |  |
| CC(=O)N1CC(n2ncc3ccc(-c4nc(C5CCN(C(=O)OC(C)(C)C)CC5)no4)cc32)C1 [Compound 861] | 0.01 | 15 |  |
| CCC(=O)N1CCC(c2noc(-c3ccc4cnn(C5CCOC5)c4c3)n2)CC1 (centres unmarked) [Compound 975] | 0.01 | > 45 |  |
| O=C(C1CC1)N1CCN(c2nnc(-c3ccc4cnn(C5COC5)c4c3)o2)CC1 [Compound 987] | > 45 | > 45 |  |
| CCC1(C(=O)N2CCC(c3noc(-c4ccc5cnn(C6COC6)c5c4)n3)CC2)CC1 [Compound 964] | 0.03 | 0.31 |  |
